Consider one molecule from US6596284B1, “Treating eczema with a combination of isotonic saline ocean® and nasal mast cell stabilizers” (priority 2002, dated 2003).

The assay is described as follows: Topical application of cromolyn sodium in OCEAN at the affected site in twenty adult subjects with atopic eczema. To be noted: 300 mg/45 ml OCEAN (0.67%), applied every 4 to 6 hours at the affected site, after two weeks. Format: in vivo, human. On the procedure:
A group of twenty adult subjects suffering from atopic eczema were asked to apply cromolyn sodium (at a concentration of 300 mg/45 ml OCEAN® giving a concentration of 0.67%) every 4 to 6 hours at the affected site, and instructed to rub the solution gently into the lesion.

Where a name gives a salt, the structure may show the parent alone.

On to `O=C(O)c1cc(=O)c2c(OCC(O)COc3cccc4oc(C(=O)O)cc(=O)c34)cccc2o1` [cromolyn sodium, disodium salt of 1,3-bis-(2-carboxy-chromone-5″yloxy)2-hydroxy propane], for which the “subjects who experienced relief from the symptoms” value is 19 of the 20.
